Results taken from patent US20170334899A1, “AMINO-SUBSTITUTED ISOTHIAZOLES” (Bayer Pharma Aktiengesellschaft, priority 2014, published 2017).
Several values for one entry are separate records, joined by “and”; a condition that tells them apart may be missing. Equal entries are not always repeated.

Each compound was assayed against T1, human kinase Mps-1 (Homo sapiens, UniProt P33981) (assay: Mps-1 kinase assay (TR-FRET)). Details: Mps-1 TR-FRET kinase assay; avg; read-out: Mps1 avg (IC50 [mol/l]).
T1 construct: N-terminally GST-tagged human full length recombinant Mps-1 kinase; GST (N); purchased Invitrogen, Karslruhe, Germany PV4071
T1 sequence (P33981 1-857): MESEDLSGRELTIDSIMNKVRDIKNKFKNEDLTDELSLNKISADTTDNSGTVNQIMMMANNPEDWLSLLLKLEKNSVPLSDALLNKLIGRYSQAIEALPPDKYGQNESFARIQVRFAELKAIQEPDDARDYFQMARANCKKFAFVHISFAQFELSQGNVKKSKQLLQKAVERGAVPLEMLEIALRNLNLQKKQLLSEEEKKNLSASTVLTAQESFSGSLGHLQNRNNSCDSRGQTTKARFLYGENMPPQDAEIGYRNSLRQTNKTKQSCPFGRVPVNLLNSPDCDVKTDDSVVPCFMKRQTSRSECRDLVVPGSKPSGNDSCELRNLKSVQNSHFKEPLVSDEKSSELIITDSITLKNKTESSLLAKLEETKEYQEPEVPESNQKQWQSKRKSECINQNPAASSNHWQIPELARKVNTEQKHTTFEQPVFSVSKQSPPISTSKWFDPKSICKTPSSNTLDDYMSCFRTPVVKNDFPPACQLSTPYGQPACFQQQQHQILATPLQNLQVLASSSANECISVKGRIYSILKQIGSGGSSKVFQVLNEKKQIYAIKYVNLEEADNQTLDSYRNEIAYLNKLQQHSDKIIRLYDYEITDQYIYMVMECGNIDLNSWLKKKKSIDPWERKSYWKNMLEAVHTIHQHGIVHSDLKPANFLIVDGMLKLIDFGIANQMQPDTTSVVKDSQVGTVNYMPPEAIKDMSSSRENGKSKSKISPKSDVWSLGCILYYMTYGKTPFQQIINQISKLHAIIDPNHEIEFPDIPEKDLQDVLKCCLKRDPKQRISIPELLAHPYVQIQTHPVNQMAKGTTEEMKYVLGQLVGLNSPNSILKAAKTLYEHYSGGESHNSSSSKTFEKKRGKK
Assay type: biochemical
How it was run: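 GST-tagged full-length recombinant human Mps-1 (~0.5 nM) pre-incubated 15 min with compound, then reacted 60 min at 22 °C with 10 μM ATP and 1 μM biotinylated peptide in Hepes pH 7.7 buffer. EDTA-stopped; TR-FRET (Eu anti-phospho-Ser/Thr to SA-XLent) 665/620 nm ratio normalised to no-inhibitor and no-enzyme controls.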

Row | Structure (SMILES) | IC50
1 | Cc1nsc(Nc2cnc3ccccc3n2)c1C(=O)Nc1ccc(Nc2ccc(F)c(F)c2)nc1 [Example 245, N-{6-[(3,4-difluorophenyl)amino]pyridin-3-yl}-3-methyl-5-(quinoxalin-2-ylamino)-1,2-thiazole-4-carboxamide] | > 20 µM and 19 µM
2 | Cc1nsc(Nc2cc(C#N)ccn2)c1C(=O)Nc1cccc(C(=O)OC(C)(C)C)c1 [Example 239, tert-butyl 3-[({5-[(4-cyanopyridin-2-yl)amino]-3-methyl-1,2-thiazol-4-yl}carbonyl)amino]benzoate] | > 20 µM
3 | COC(=O)CCc1cccc(NC(=O)c2c(C)nsc2Nc2ccc(C#N)cn2)c1 [Example 176, methyl 3-{3-[({5-[(5-cyanopyridin-2-yl)amino]-3-methyl-1,2-thiazol-4-yl}carbonyl)amino]phenyl}propanoate] | > 20 µM
4 | Cc1nsc(Nc2cnc(C(F)(F)F)cn2)c1C(=O)Nc1ccc(OCCN)c(F)c1 [Example 221, 3-N-[4-(2-aminoethoxy)-3-fluorophenyl]-3-methyl-5-{[5-(trifluoromethyl)pyrazin-2-yl]amino}-1,2-thiazole-4-carboxamide] | > 20 µM
5 | Cc1nsc(Nc2cncc(C(F)(F)F)n2)c1C(=O)Nc1ccc(OC2CCCN(C(=O)OC(C)(C)C)C2)nc1 (stereo not drawn) [Example 189, tert-butyl 3-[(5-{[(3-methyl-5-{[6-(trifluoromethyl)pyrazin-2-yl]amino}-1,2-thiazol-4-yl)carbonyl]amino}pyridin-2-yl)oxy]piperidine-1-carboxylate] | > 20 µM
6 | Cc1nsc(Nc2cnc3ccccc3n2)c1C(=O)Nc1cccc(NC(=O)C(C)(C)C)c1 [Example 186, N-{3-[(2,2-dimethylpropanoyl)amino]phenyl}-3-methyl-5-(quinoxalin-2-ylamino)-1,2-thiazole-4-carboxamide] | > 20 µM
7 | Cc1nsc(Nc2cnccn2)c1C(=O)Nc1ccc(C(=O)OC(C)(C)C)cc1 [Example 184, tert-butyl 4-({[3-methyl-5-(pyrazin-2-ylamino)-1,2-thiazol-4-yl]carbonyl}amino)benzoate] | > 20 µM
8 | Cc1nsc(Nc2ccc(C#N)cn2)c1C(=O)Nc1ccc(OCCC(=O)OC(C)(C)C)nc1 [Example 199, tert-butyl 3-({5-[({5-[(5-cyanopyridin-2-yl)amino]-3-methyl-1,2-thiazol-4-yl}carbonyl)amino]pyridin-2-yl}oxy)propanoate] | > 20 µM
9 | CNC(=O)c1ccc(NC(=O)c2c(C)nsc2Nc2ccc(C#N)cn2)cc1F [Example 208, 5-[(5-cyanopyridin-2-yl)amino]-N-[3-fluoro-4-(methylcarbamoyl)phenyl]-3-methyl-1,2-thiazole-4-carboxamide] | > 20 µM

More lines, now with the values ahead:

Row | IC50 | Structure (SMILES)
10 | > 20 µM | Cc1nsc(Nc2cnc(C(F)(F)F)cn2)c1C(=O)Nc1ccc(OCCNC(=O)OC(C)(C)C)c(F)c1 [Example 215, tert-butyl [2-(2-fluoro-4-{[(3-methyl-5-{[5-(trifluoromethyl)pyrazin-2-yl]amino}-1,2-thiazol-4-yl)carbonyl]amino}phenoxy)ethyl]carbamate]
11 | > 20 µM | COC(=O)c1cc(NC(=O)c2c(C)nsc2Nc2cnc3ccccc3n2)cc(C(=O)OC)c1 [Example 237, dimethyl 5-({[3-methyl-5-(quinoxalin-2-ylamino)-1,2-thiazol-4-yl]carbonyl}amino)isophthalate]
12 | > 20 µM | Cc1nsc(Nc2cnc3ccccc3n2)c1C(=O)Nc1ccc(NC2CCCN(C(=O)OC(C)(C)C)C2)nc1 (stereo not drawn) [Example 241, tert-butyl 3-{[5-({[3-methyl-5-(quinoxalin-2-ylamino)-1,2-thiazol-4-yl]carbonyl}amino)pyridin-2-yl]amino}piperidine-1-carboxylate]
13 | ≥ 20 µM | Cc1nsc(Nc2cnc3ccccc3n2)c1C(=O)Nc1ccc(OC2CCNCC2)nc1 [Example 19, 3-Methyl-N-[6-(piperidin-4-yloxy)pyridin-3-yl]-5-(quinoxalin-2-ylamino)-1,2-thiazole-4-carboxamide]
14 | > 20 µM | Cc1nsc(Nc2cncc(C(F)(F)F)n2)c1C(=O)Nc1ccc(C(=O)NC2CCN(C(=O)OC(C)(C)C)CC2)cc1 [Example 222, tert-butyl 4-[(4-{[(3-methyl-5-{[6-(trifluoromethyl)pyrazin-2-yl]amino}-1,2-thiazol-4-yl)carbonyl]amino}benzoyl)amino] piperidine-1-carboxylate]
15 | > 20 µM | CNS(=O)(=O)c1ccc(NC(=O)c2c(C)nsc2Nc2cc(C#N)ccn2)cc1 [Example 210, 5-[(4-cyanopyridin-2-yl)amino]-3-methyl-N-[4-(methylsulfamoyl)phenyl]-1,2-thiazole-4-carboxamide]
